The target in this assay is T1, STING (Homo sapiens, UniProt Q86WV6, H232R).
T1 construct: gene STING1; carboxy-terminal domain (STING^R232/CTD; CTD printed as residues 149–379)
The assay can be described thus: isothermal titration calorimetry (ITC). The class given is binding. On the technique in general: In ITC the heat of successive injections is recorded.

Each structure is given as a SMILES string.

In general, Kd refers to the free concentration of one partner at which half of the binding sites on the other are occupied at equilibrium, for simple one-to-one binding. Read a low Kd as higher affinity.

T1 sequence (Q86WV6 149-379 H232R): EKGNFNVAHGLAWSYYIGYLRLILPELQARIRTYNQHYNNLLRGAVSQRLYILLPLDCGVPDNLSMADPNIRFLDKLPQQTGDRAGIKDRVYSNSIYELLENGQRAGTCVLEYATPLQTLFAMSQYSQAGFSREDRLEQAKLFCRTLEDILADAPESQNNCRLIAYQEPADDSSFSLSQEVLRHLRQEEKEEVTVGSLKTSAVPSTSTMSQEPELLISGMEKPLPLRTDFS

In turn, `Nc1nc2c(ncn2[C@@H]2O[C@@H]3CO[P@](=O)(O)O[C@H]4[C@@H](O)[C@H](n5cnc6c(=O)[nH]c(N)nc65)O[C@@H]4CO[P@](=O)(O)O[C@H]3[C@H]2O)c(=O)[nH]1` [c-di-GMP] showed a Kd of 4.09 µM.

For the origin of these results see article PMC6753226, “Highly Efficient Preparation of Cyclic Dinucleotides via Engineering of Dinucleotide Cyclases in Escherichia coli” (Frontiers in Microbiology, 2019).
